Entries after “also recorded” stand apart in the source; their conditions may differ. Residues, ends and D or L forms follow the SMILES beside them. *: point of attachment. Cbz = O=C(OCc1ccccc1)*; CH2F = FC*

For data set [1], the system named is DLD-1 cells. Briefly: Cell death by Annexin V / propidium iodide FACS analysis. The format is cell-based, human. The settings on record: 48 hours. As to the method:
The effect of the compound 14 on colon epithelial cell death was also assessed. To this end, cells were cultured as indicated above for 2 days and then the fraction of Annexin V (AV) and/or propidium iodide (PI)-positive cells was evaluated using a commercially available kit (Beckmann Coulter™, Milan, Italy). To evaluate whether the effect of the compound 14 on colon epithelial cell death was dependent on caspase activity, cells were pre-incubated with z-VAD-fmk (40 μM), a pan-caspase inhibitor, for 1 hour prior to adding the compound 14 (1.5 mM). The fraction of AV and PI-positive cells was determined after 48 hours culture as indicated above.

Data set [2] deals with DLD-1 cells. In words: Cell growth by colorimetric BrdU incorporation assay, DLD-1. It counts as cell-based. Particulars: Homo sapiens, 48 hours; for inhibition at 500 µM: 0.5 mM; for inhibition at 1000 µM: 1 mM; for inhibition at 2500 µM: 2.5 mM; for inhibition at 5000 µM: 5 mM; for inhibition at 10000 µM: 10 mM. The protocol: (§1) HT-29 and DLD-1 cells were cultured in McCoy and RPMI1640 media respectively, supplemented with 10% fetal bovine serum (FBS), 1% penicillin/streptomycin (P/S) and 50 μg/ml gentamycin. HT-115 were cultured in DMEM medium supplemented with 15% FBS and 1% P/S. Cells were maintained in a humidified incubator at 37° C., in the presence of 5% CO2.
(§2) For cell growth assays, single-cell suspensions were plated at 2×10^3 cells/well (4×10^3 cells/well for HT115) in 96-well culture dishes in medium containing 0.5% FBS and allowed to adhere. The non-adherent cells were then removed, and fresh medium containing 0.5% FBS was added into each well. Cells were cultured in the presence or absence of the specified substances. Each substance was dissolved as a 25 mM stock solution in culture medium containing 0.5% FBS, and the pH of each stock solution was adjusted to 7.4, if necessary, with NaOH. Substances were used at a final concentration ranging from 0.5 to 10 mM. Cell proliferation was determined by measuring the incorporation of 5-bromo-2′-deoxyuridine (BrdU) into DNA using a commercially available cell proliferation kit (Roche Diagnostics™, Monza, Italy). BrdU was added to the cell cultures during the last 6 hours of incubation, and the level of BrdU-positive cells was assessed after 48 h culture by enzyme-linked immunosorbent assay (ELISA).
(§3) Optical density (OD) was determined at 450 nm using an ELISA reader. Experiments were performed in triplicate and the results are reported as the mean±standard deviation (SD).

The subject of the next data set is HT-29, HT-115 and DLD-1. In words: Colon cancer cell growth by BrdU assay, three human colon carcinoma cell lines. The settings on record: for anti-proliferative effect on colon cancer cell growth (in words): 0.5-10 mM; for anti-proliferative effect on colon cancer cell growth (in words) / inhibition at 10000 µM: 48 h; for inhibition at 10000 µM: Homo sapiens, Colon carcinoma cell, final concentration 10 mM; for cell death following precipitates in cell cultures: colon cancer cell cultures, Example 10. The format is cell-based. As to the method: For this purpose, three human colon carcinoma cell lines (i.e. HT-29, HT-115 and DLD-1) were used. These cell types were selected on the basis of the cyclooxigenase-2 (COX-2) expression. Indeed, HT-115 cells express a biologically active COX-2, HT-29 cells express a non-functional COX-2 isoform, and DLD-1 are COX-2-deficient cells.
as §1, §2, §3

The next data set relates to HT-29 STD cells. In words: Cytotoxic effect on epithelial cells seen in the HT-29 experiments. Particulars: 30 mM, HT-29 cells. It counts as cell-based, human. As to the method: HT-29 STD cells were transiently transfected using the Effectene™ transfection reagent (Qiagen™) according to instructions from the manufacturer. To test PPARγ activation, we performed transfection with 500 ng of a minimal promoter construct containing two copies of PPRE obtained from the cytochrome p450 4A (2XCYP) (1). The renilla luciferase plasmid ([…]) was also transfected as an internal control for monitoring transfection efficiency and for normalizing the firefly luciferase activity. Transfected cells were left for 48 hours incubation at 37° C. […] The pH of the drug solutions was adjusted to 7.4 with NaOH. Total cell extracts were prepared using the Passive Lysis Buffer (Promega™, Madison, Wis.). Luciferase activity was assayed in 20 μl of the extract using the Promega™ Dual Luciferase assay system according to the manufacturer's protocol. Transfections were assayed in triplicate in at least three separate experiments. The luciferase activity was expressed as fold of the activity obtained in cells treated with the different molecules divided by luciferase activity from non-stimulated cells.
After 24 h of culture, HT-29 STD cells were treated during 24 h with the new molecules 13, 14, 17, 26 and 31, at 30 mM. […] The pH of the drug solutions was adjusted to 7.4 with NaOH. Cells were fixed in PFA 4%, permeabilized in PBS containing 0.1% Triton X-100™ at 4° C. and then incubated with goat normal serum and blocking buffer (1% BSA in PBS) to minimize non-specific adsorption of the antibody.
After 24 h of culture, HT-29 STD cells were treated during 24 h with the new molecules 13, 14, 17, 26 and 31, at a concentration of 30 mM. […] The pH of the drug solutions was adjusted to 7.4 with NaOH. Cells undergoing apoptosis were identified by enzymatic labelling of DNA strands using a terminal transferase dUTP nick end labelling assay (TUNEL assay, Roche Diagnostics™, Meylan, France). Counts of at least 500 cells/sample were systematically performed blindly in one experiment. The results were expressed as the mean±SEM of the number of stained cells.

A short description of data set [3]: Solubility in drug solutions / culture medium. The format is physicochemical. Particulars: for precipitates in cell cultures: colon cancer cell cultures.
Data set [4] concerns DLD-1 cells. In words: CFSE flow cytometry of cell proliferation. Particulars: 48 hour treatment, untreated 90±4%. The format is cell-based, human. As to the method: To assess further the effect of the compound 14 on colon epithelial cell growth, serum-starved DLD-1 cells were incubated in 0.2 μM carboxyfluorescein diacetate succinimidyl ester (CFSE) (Invitrogen™, Milan Italy) at 37° C. for 30 minutes, then extensively washed and cultured with or without the addition of the compound. After 2 days culture, CFSE fluorescence was evaluated and the proportion of cells undergoing divisions was determined, thus allowing calculation of both precursor frequency and proliferative index.

For the next data set, the system named is PPARγ. Briefly: PPARγ protein expression by western blot in HT-29 cells. The format is cell-based, human. The settings on record: 30 mM, 24 hours, HT-29, relative to β-actin. As to the method: The total proteins were obtained by cell homogenization in an extraction buffer consisting of PBS with 2% Triton™, Phenyl Methyl Sulphonyl Fluoride (PMSF) 100 mM and a classical protease inhibitor cocktail (2). The total proteins were then separated by polyacrylamide gel electrophoresis and electroblotted. Polyvinylidendifluoride (PVDF) membranes were incubated overnight with rabbit polyclonal primary antibody directed against PPARγ (dilution 1/500, TEBU, Le Perray en Yveline, France). β-actin was detected using a rabbit monoclonal primary antibody diluted at 1/10,000 (Sigma). Immunodetection with a secondary peroxidase-conjugated antibody (1/1000, Dako™, Trappes, France) and chemiluminescence was performed according to the manufacturer's protocol (ECL™, Amersham Pharmacia Biotech™, Orsay, France). Optical density values of PPARγ were given for each condition in proportion to the quantity of the internal control β-actin in the same sample (2).

In the case of `COC(=O)C[C@H](NC(=O)[C@H](C)NC(=O)[C@@H](NC(=O)OCc1ccccc1)C(C)C)C(=O)CF` [Z-VAD, z-VAD-fmk, reference compound] (Cbz-Val-Ala-Asp(OMe)-CH2F), the “percentage of AV/PI-positive cells in cells treated with compound 14” value in the data set with DLD-1 cells [1] (preincubation z-VAD-fmk 40 μM 1 hour, then compound 14 1.5 mM) is recorded as “largely reduced”.

In the data set with DLD-1 cells [2], `COc1cc(N)ccc1C(=O)NO` [compound 13, 4-amino-N-hydroxy-2-methoxybenzamide] gave an inhibition at 500 µM of 21.1%, an inhibition at 1000 µM of 73%, an inhibition at 2500 µM of 92.7% and an inhibition at 5000 µM of 96.3%. Besides, the inhibition at 10000 µM with DLD-1 cells [2] is 96.4%. Moreover, in the data set on HT-29, HT-115 and DLD-1, the “anti-proliferative effect on colon cancer cell growth (in words)” value (“anti-proliferative effect” below) is “marked anti-proliferative effect; also recorded: most powerful suppressors of colon cancer cell growth”, the inhibition at 10000 µM is greater than 90% and the “cell death following precipitates in cell cultures” value is “massive cell death”. For the same compound, the “cytotoxic effect on epithelial cells” value in the data set on HT-29 STD cells was “rapid cytotoxic effects”. In addition, in data set [3] (Example 10), the “precipitates in cell cultures” value is reported as “precipitates developed”.

`COc1ccc(N)cc1C(=O)NO` [compound 14, 5-amino-N-hydroxy-2-methoxybenzamide]: in the data set on DLD-1 cells [2], testing at 500 µM gave an inhibition of 22.8%, testing at 1000 µM gave an inhibition of 36%, the inhibition at 2500 µM turned out to be 76.5% and the inhibition at 5000 µM is 90.5%. In the data set with DLD-1 cells [2], this compound had an inhibition at 10000 µM of 94.1%. For the same compound, in the data set on HT-29, HT-115 and DLD-1, the “anti-proliferative effect” value is listed as “marked anti-proliferative effect; also recorded: most powerful suppressors of colon cancer cell growth” and the inhibition at 10000 µM was greater than 90%. The “fraction of proliferating cells” value in the data set with DLD-1 cells [4] (0.5 mM) came to 48±7%. The “fraction of proliferating cells” value in the data set with DLD-1 cells [4] (1 mM) turned out to be 21±11%. Also, the “fraction of proliferating cells” value in the data set with DLD-1 cells [4] (2.5 mM) was determined as 11±6%. For the same compound, the “cell death (AV and/or PI-positive cells)” value in the data set on DLD-1 cells [1] (1.5 mM, p<0.01) is listed as “significantly enhances DLD1 cell death”. Moreover, the “cell death (AV and/or PI-positive cells)” value with DLD-1 cells [1] (3 mM, p<0.001) is listed as “significantly enhances DLD1 cell death”. Further, the “cytotoxic effect on epithelial cells” value with HT-29 STD cells is “rapid cytotoxic effects”.

Turning to `CCOc1ccc(N)cc1C(=O)NO` [compound 26, 5-amino-2-ethoxy-N-hydroxybenzamide], the “induction of PPARγ protein levels quantified by western blot” value in the data set with PPARγ stood at 2 fold. In the data set on DLD-1 cells [2], the inhibition at 500 µM was 13.6%, the inhibition at 1000 µM turned out to be 19%, at 2500 µM the inhibition was 62% and the inhibition at 5000 µM was determined as 86%. In addition, the inhibition at 10000 µM in the data set with DLD-1 cells [2] is 94.5%. For the same compound, in the data set with HT-29, HT-115 and DLD-1, the “anti-proliferative effect” value is listed as “marked anti-proliferative effect”. Also, the “cytotoxic effect on epithelial cells” value in the data set on HT-29 STD cells was “rapid cytotoxic effect”.

As to `CC1(C)OC(=O)c2cc(N)ccc2O1` [compound 28, 6-amino-2,2-dimethyl-4H-benzo[1,3]dioxin-4-one], in data set [3] (culture medium, Example 10), the “solubility in the culture medium” value is recorded as “not soluble in the culture medium”.

In the data set with DLD-1 cells [2], `CC(C)N(c1ccc(O)c(C(=O)O)c1)C(C)C` [compound 38, 5-diisopropylaminosalicylic acid] had an inhibition at 500 µM of 6%, an inhibition at 1000 µM of 11.1%, an inhibition at 2500 µM of 51.9% and an inhibition at 5000 µM of 85.9%. Besides, the inhibition at 10000 µM in the data set on DLD-1 cells [2] turned out to be 94.5%. Besides, in the data set on HT-29, HT-115 and DLD-1, the “anti-proliferative effect” value is given as “marked anti-proliferative effect; also recorded: most powerful suppressors of colon cancer cell growth” and the “cell death following precipitates in cell cultures” value was “massive cell death”. In addition, in the data set with HT-29 STD cells, the “cytotoxic effect on epithelial cells” value is on record as “rapid cytotoxic effect”. In data set [3] (Example 10), the “precipitates in cell cultures” value was “precipitates developed”. Also, the solubility result in data set [3] (drug solutions for HT-29 experiments, 30 mM, pH 7.4) is on record as “poor solubility”.

Source of the values: patent publication US8138357B2, “Compounds and their salts specific to the PPAR receptors and the EGF receptors and their use in the medical field” (Giuliani International Limited, priority 2005, dated 2012).
